The first assay deals with T1, mTOR (Homo sapiens, UniProt P42345).
T1 construct: FLAG; made in house
T1 sequence (P42345 1362-2549): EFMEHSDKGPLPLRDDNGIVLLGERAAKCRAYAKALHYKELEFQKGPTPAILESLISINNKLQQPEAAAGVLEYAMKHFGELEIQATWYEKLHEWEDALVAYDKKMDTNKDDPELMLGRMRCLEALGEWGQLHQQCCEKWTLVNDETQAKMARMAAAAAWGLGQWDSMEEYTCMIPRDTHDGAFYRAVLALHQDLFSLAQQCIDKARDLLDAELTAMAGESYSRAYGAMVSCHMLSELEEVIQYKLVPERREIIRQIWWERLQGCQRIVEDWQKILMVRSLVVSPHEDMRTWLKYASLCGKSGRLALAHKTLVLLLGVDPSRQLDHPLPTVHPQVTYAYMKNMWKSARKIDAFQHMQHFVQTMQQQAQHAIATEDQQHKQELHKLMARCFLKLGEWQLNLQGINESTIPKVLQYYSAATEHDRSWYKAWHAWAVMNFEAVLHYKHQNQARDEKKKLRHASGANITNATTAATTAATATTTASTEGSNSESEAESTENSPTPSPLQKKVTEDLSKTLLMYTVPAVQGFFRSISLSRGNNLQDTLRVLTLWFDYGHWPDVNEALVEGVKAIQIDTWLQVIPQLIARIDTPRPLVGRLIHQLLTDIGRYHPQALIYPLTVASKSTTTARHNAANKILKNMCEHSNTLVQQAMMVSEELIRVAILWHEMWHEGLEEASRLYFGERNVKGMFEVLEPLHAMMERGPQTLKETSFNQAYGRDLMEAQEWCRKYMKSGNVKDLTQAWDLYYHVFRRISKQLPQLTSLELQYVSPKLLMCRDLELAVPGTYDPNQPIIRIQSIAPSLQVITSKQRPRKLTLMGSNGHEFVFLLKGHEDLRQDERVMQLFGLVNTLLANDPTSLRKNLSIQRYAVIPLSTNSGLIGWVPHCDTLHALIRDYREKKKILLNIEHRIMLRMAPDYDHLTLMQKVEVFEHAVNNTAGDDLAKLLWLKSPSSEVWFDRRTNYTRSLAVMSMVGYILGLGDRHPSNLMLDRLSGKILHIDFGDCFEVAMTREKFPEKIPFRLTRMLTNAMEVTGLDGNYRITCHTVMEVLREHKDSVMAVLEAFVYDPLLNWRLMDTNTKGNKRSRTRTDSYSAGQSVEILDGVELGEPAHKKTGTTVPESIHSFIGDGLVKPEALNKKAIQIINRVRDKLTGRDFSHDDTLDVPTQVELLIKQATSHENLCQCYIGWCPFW
The experiment in a line: In Vitro mTOR Kinase Assay (Echo), Test (a)(ii). The note with it: read-out: mTOR Kinase Assay (Echo). Format: biochemical. In a few lines: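 Inhibition expressed as IC50 from an AlphaScreen read-out: phospho-T389 p70 S6K antibody plus streptavidin donor/protein A acceptor beads, left overnight in the dark. The kinase reaction ran 2 h at room temperature, then was stopped with EDTA. Enzyme: FLAG-purified mTOR 1362-2549 fragment from stable HEK293 cells.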
Regarding `C[C@H]1COCCN1c1cc(C2(S(=O)(=O)c3ccncc3)CC2)nc(-c2ccc(NC(=O)NCCO)cc2)n1` [Example 6f, 3-(2-hydroxyethyl)-1-[4-[4-[(3S)-3-methylmorpholin-4-yl]-6-(1-pyridin-4-ylsulfonylcyclopropyl)pyrimidin-2-yl]phenyl]urea], the IC50 was 0.794 nM.

For `CS(=O)(=O)C1(c2cc(N3CCOCC3)nc(-c3ccc(NC(=O)NC4CC4)cc3)n2)CCC1` [Example 12p, 3-cyclopropyl-1-[4-[4-(1-methylsulfonylcyclobutyl)-6-morpholin-4-ylpyrimidin-2-yl]phenyl]urea], the IC50 was 1.4 nM.

For `C[C@H]1COCCN1c1cc(C2(S(C)(=O)=O)CCCC2)nc(-c2ccc(NC(=O)NCCCO)cc2)n1` [Example 4j, 3-(3-hydroxypropyl)-1-[4-[4-[(3S)-3-methylmorpholin-4-yl]-6-(1-methylsulfonylcyclopentyl)pyrimidin-2-yl]phenyl]urea], the IC50 turned out to be 4.61 nM.

As to `Cc1nc(S(=O)(=O)C2(c3cc(N4CCOC[C@@H]4C)nc(-c4ccc(NC(=O)Nc5cnn(C)c5)cc4)n3)CC2)sc1C` [Example 81, 1-[4-[4-[1-[(4,5-Dimethyl-1,3-thiazol-2-yl)sulfonyl]cyclopropyl]-6-[(3S)-3-methylmorpholin-4-yl]pyrimidin-2-yl]phenyl]-3-(1-methylpyrazol-4-yl)urea], the IC50 is 8.13 nM.

As for `CCCNC(=O)Nc1ccc(-c2nc(N3CCOC[C@@H]3C)cc(C3(S(C)(=O)=O)CCC3)n2)cc1` [Example 5h, 1-[4-[4-[(3S)-3-methylmorpholin-4-yl]-6-(1-methylsulfonylcyclobutyl)pyrimidin-2-yl]phenyl]-3-propyl-urea], the IC50 is 2.34 nM.

In the case of `C[C@H]1COCCN1c1cc(C2(S(C)(=O)=O)CCCC2)nc(-c2ccc(NC(=O)NC3CCC3)cc2)n1` [Example 4d, 3-cyclobutyl-1-[4-[4-[(3S)-3-methylmorpholin-4-yl]-6-(1-methylsulfonylcyclopentyl)pyrimidin-2-yl]phenyl]urea], the IC50 was 10 nM.

The same assay, now with this note: table of enzyme assay Test (a)(ii); read-out: Test (a)(ii) IC50.
`C[C@H]1COCCN1c1cc(C2(S(=O)(=O)CCCO)CC2)nc(-c2ccc(NC(=S)NC3CCC3)cc2)n1` [Example 37d, 3-cyclobutyl-1-[4-[4-[1-(3-hydroxypropylsulfonyl)cyclopro-pyl]-6-[(3S)-3-methylmorpholin-4-yl]pyrimidin-2-yl]phenyl]thiourea]: the IC50 was 4.39 nM.

As for `C[C@H]1COCCN1c1cc(C2(S(=O)(=O)c3cc(F)cc(F)c3)CC2)nc(-c2ccc(NC(=O)Nc3ccc(C(F)(F)F)cc3)cc2)n1` [Example 19j, 1-[4-[4-[1-(3,5-difluorophenyl)sulfonylcyclopro-pyl]-6-[(3S)-3-methylmorpholin-4-yl]pyrimidin-2-yl]phenyl]-3-[4-(trifluoromethyl)phenyl]urea], the IC50 stood at 19.9 nM.

For the compound `C[C@H]1COCCN1c1cc(C2(S(=O)(=O)c3cc(F)cc(F)c3)CC2)nc(-c2ccc(NC(=O)NC3CC3)cc2)n1` [Example 19, 3-Cyclopropyl-1-[4-[4-[1-(3,5-difluorophenyl)sulfonylcyclopropyl]-6-[(3S)-3-methylmorpholin-4-yl]pyrimidin-2-yl]phenyl]urea], the IC50 was 1.31 nM.

Turning to `C[C@H]1COCCN1c1cc(C2(S(C)(=O)=O)CCCC2)nc(-c2ccc(NC(=O)NCCCO)cc2)n1` [Example 4j, 3-(3-hydroxypropyl)-1-[4-[4-[(3S)-3-methylmorpholin-4-yl]-6-(1-methylsulfonylcyclopentyl)pyrimidin-2-yl]phenyl]urea], the IC50 is 3.79 nM.

`C[C@H]1COCCN1c1cc(C2(S(=O)(=O)CCCO)CC2)nc(-c2ccc(NC(=O)Nc3ccccn3)cc2)n1` [Example 31c, 1-[4-[4-[1-(3-hydroxypropylsulfonyl)cyclopropyl]-6-[(3S)-3-methylmorpholin-4-yl]pyrimidin-2-yl]phenyl]-3-pyridin-2-ylurea]: the IC50 came to 1.31 nM.

As to `Cc1nc(S(=O)(=O)C2(c3cc(N4CCOC[C@@H]4C)nc(-c4ccc(NC(=O)Nc5cnn(C)c5)cc4)n3)CC2)sc1C` [Example 81, 1-[4-[4-[1-[(4,5-Dimethyl-1,3-thiazol-2-yl)sulfonyl]cyclopropyl]-6-[(3S)-3-methylmorpholin-4-yl]pyrimidin-2-yl]phenyl]-3-(1-methylpyrazol-4-yl)urea], the IC50 stood at 13.7 nM.

On to `CCNC(=O)Nc1ccc(-c2nc(N3CCOC[C@@H]3C)cc(C3(S(=O)(=O)CCCOC(F)F)CC3)n2)cc1` [Example 96c, 1-[4-[4-[1-[3-(difluoromethoxy)propylsulfonyl]cyclopropyl]-6-[(3S)-3-methylmorpholin-4-yl]pyrimidin-2-yl]phenyl]-3-ethylurea], for which the IC50 worked out at 27.2 nM.

For the compound `C[C@H]1COCCN1c1cc(C2(S(=O)(=O)c3c(F)cccc3F)CC2)nc(-c2ccc(NC(=O)NCC(F)F)cc2)n1` [Example 86e, 3-(2,2-difluoroethyl)-1-[4-[4-[1-(2,6-difluorophenyl)sulfonylcyclopropyl]-6-[(3S)-3-methylmorpholin-4-yl]pyrimidin-2-yl]phenyl]urea], the IC50 turned out to be 2.23 nM.

Take `C[C@H]1COCCN1c1cc(C2(S(=O)(=O)C3CCOC3)CC2)nc(-c2ccc(NC(=O)NC3CC3)cc2)n1` (stereo partly drawn) [Example 94i, 3-cyclopropyl-1-[4-[4-[(3S)-3-methylmorpholin-4-yl]-6-[1-(oxolan-3-ylsulfonyl)cyclopropyl]pyrimidin-2-yl]phenyl]urea]: the IC50 was found to be 12.1 nM.

As to `Cc1csc(S(=O)(=O)C2(c3cc(N4CCOCC4)nc(-c4ccc(NC(=O)Nc5cnn(C)c5)cc4)n3)CC2)n1` [Example 42b, 3-(1-methylpyrazol-4-yl)-1-[4-[4-[1-[(4-methyl-1,3-thiazol-2-yl)sulfonyl]cyclopropyl]-6-morpholin-4-ylpyrimidin-2-yl]phenyl]urea], the IC50 came out at 5.35 nM.

Consider `Cc1ccc(F)cc1S(=O)(=O)C1(c2cc(N3CCOC[C@@H]3C)nc(-c3ccc(NC(=O)Nc4cnn(C)c4)cc3)n2)CC1` [Example 61f, 1-[4-[4-[1-(5-fluoro-2-methylphenyl)sulfonylcyclopropyl]-6-[(3S)-3-methylmorpholin-4-yl]pyrimidin-2-yl]phenyl]-3-(1-methylpyrazol-4-yl)urea], for which the IC50 was 32.8 nM.

For `C[C@H]1COCCN1c1cc(C2(S(=O)(=O)CCCO)CCC2)nc(-c2ccc(NC(=S)NC(C)(C)CO)cc2)n1` [Example 99d, 3-(1-hydroxy-2-methylpropan-2-yl)-1-[4-[4-[1-(3-hydroxypropylsulfonyl)cyclobutyl]-6-[(3S)-3-methylmorpholin-4-yl]pyrimidin-2-yl]phenyl]thiourea], the IC50 was determined as 219 nM.

Regarding `CCNC(=O)Nc1ccc(-c2nc(N3CCOC[C@@H]3C)cc(C3(S(=O)(=O)c4ccc(OC(F)F)cc4)CC3)n2)cc1` [Example 64b, 3-[4-[4-[1-[4-(difluoromethoxy)phenyl]sulfonyl-cyclopropyl]-6-[(3S)-3-methylmorpholin-4-yl]pyrimidin-2-yl]phenyl]-1-ethylurea], the IC50 amounted to 6.78 nM.

With `C[C@H]1COCCN1c1cc(C2(S(=O)(=O)c3cccc(F)c3)CC2)nc(-c2ccc(NC(=O)Nc3cnn(C)c3)cc2)n1` [Example 53f, 1-[4-[4-[1-(3-fluorophenyl)sulfonylcyclopro-pyl]-6-[(3S)-3-methylmorpholin-4-yl]pyrimidin-2-yl]phenyl]-3-(1-methylpyrazol-4-yl)urea], the IC50 was found to be 6.34 nM.

As for `C[C@H]1COCCN1c1cc(C2(S(=O)(=O)c3ccc(C#N)cc3Cl)CC2)nc(-c2ccc(NC(=O)NCCO)cc2)n1` [Example 85j, 1-[4-[4-[1-(2-chloro-4-cyanophenyl)sulfonylcyclopropyl]-6-[(3S)-3-methylmorpholin-4-yl]pyrimidin-2-yl]phenyl]-3-(2-hydroxyethyl)urea], the IC50 stood at 12.4 nM.

As for `C[C@H](CO)NC(=O)Nc1ccc(-c2nc(N3CCOC[C@@H]3C)cc(C3(S(=O)(=O)CCCO)CCC3)n2)cc1` [Example 43r, 3-[(2R)-1-hydroxypropan-2-yl]-1-[4-[4-[1-(3-hydroxypropylsulfonyl)cyclobu-tyl]-6-[(3S)-3-methylmorpholin-4-yl]pyrimidin-2-yl]phenyl]urea], the IC50 was found to be 57.7 nM.

For `C[C@H]1COC[C@H](C)N1c1cc(C2(S(=O)(=O)C3CC3)CC2)nc(-c2ccc(NC(=O)NCC(F)F)cc2)n1` [Example 92a, 1-[4-[4-(1-cyclopropylsulfonylcyclopropyl)-6-[(3S,5S)-3,5-dimethylmorpholin-4-yl]pyrimidin-2-yl]phenyl]-3-(2,2-difluoroethyl)urea], the IC50 is 5.51 nM.

With `CCNC(=O)Nc1ccc(-c2nc(N3CCOC[C@@H]3C)cc(C3(S(=O)(=O)c4cccc(F)c4)CC3)n2)cc1` [Example 53e, 1-ethyl-3-[4-[4-[1-(3-fluorophenyl)sulfonylcyclopro-pyl]-6-[(3S)-3-methylmorpholin-4-yl]pyrimidin-2-yl]phenyl]urea], the IC50 came out at 1.98 nM.

With `C[C@H]1COCCN1c1cc(C2(S(=O)(=O)CCCO)CC2)nc(-c2ccc(NC(=O)NC3(CO)CC3)cc2)n1` [Example 36a, 3-[1-(hydroxymethyl)cyclopro-pyl]-1-[4-[4-[1-(3-hydroxypropylsulfonyl)cyclopropyl]-6-[(3S)-3-methylmorpholin-4-yl]pyrimidin-2-yl]phenyl]urea], the IC50 was 142 nM.

On to `C[C@H]1COCCN1c1cc(C2(S(=O)(=O)c3nccs3)CC2)nc(-c2ccc(NC(=O)NC3CC3)cc2)n1` [Example 39, 3-Cyclopropyl-1-[4-[4-[(3S)-3-methylmorpholin-4-yl]-6-[1-(1,3-thiazol-2-ylsulfonyl)cyclopropyl]pyrimidin-2-yl]phenyl]urea], for which the IC50 stood at 0.351 nM.

Take `C[C@H]1COCCN1c1cc(C2(S(=O)(=O)c3nccs3)CC2)nc(-c2ccc(NC(=O)NCCCO)cc2)n1` [Example 66a, 3-(3-hydroxypropyl)-1-[4-[4-[(3S)-3-methylmorpholin-4-yl]-6-[1-(1,3-thiazol-2-ylsulfonyl)cyclopropyl]pyrimidin-2-yl]phenyl]urea]: the IC50 turned out to be 4.15 nM.

Consider `C[C@H](CO)NC(=O)Nc1ccc(-c2nc(N3CCOC[C@@H]3C)cc(C3(S(=O)(=O)c4ccc(F)cc4)CCC3)n2)cc1` [Example 65e, 1-[4-[4-[1-(4-fluorophenyl)sulfonylcyclobutyl]-6-[(3S)-3-methylmorpholin-4-yl]pyrimidin-2-yl]phenyl]-3-[(2R)-1-hydroxypropan-2-yl]urea], for which the IC50 is 11.4 nM.

Consider `CCNC(=O)Nc1ccc(-c2nc(N3CCOC[C@@H]3C)cc(C3(S(=O)(=O)c4cc(F)cc(F)c4)CC3)n2)cc1` [Example 19e, 1-[4-[4-[1-(3,5-difluorophenyl)sulfonylcyclopro-pyl]-6-[(3S)-3-methylmorpholin-4-yl]pyrimidin-2-yl]phenyl]-3-ethylurea], for which the IC50 was found to be 1.35 nM.

The values above are taken from patent publication US20090018134A1, “Compounds - 945” (AstraZeneca AB, priority 2007, published 2009).
